Usually melting point stands for the temperature, or range, at which the solid turns liquid.

With `Cc1cccc(-c2[nH]c(C(C)C)nc2-c2cccc(-c3ccccc3F)c2)n1`, the melting point is 153 to 155 °C.
As for `CCCCc1ncc(CNC(C)(Cc2ccccc2)C(=O)O)n1Cc1ccccc1Cl` (stereo not given), the figure is 157 to 159 °C.
The same measure for `N#Cc1cc(I)c(I)[nH]1`: 211 to 213 °C; for `N#Cc1c(Nc2c(F)cccc2F)cccc1Oc1ccccc1`: 150 to 153 °C; for `N[C@@H](Cc1cc(F)cc(F)c1)[C@H](O)CO`: 93 °C.
The compound `Nc1nc2ccnc(-c3cccc(C=O)c3)n2n1` yielded a melting point of 205 to 208 °C.
As for `O=c1[nH]nc2n1-c1ccc(N3CCCC3)nc1C(c1ccccc1Cl)=[N+]([O-])C2`, the figure is 200 °C; as for `CC(C)(C)OC(=O)C(C)(C)Oc1ccc(N)cc1`, 87 to 88 °C.
For `COC(C)=CC(=O)NC1CCC(C)CC1` (stereo not given), the melting point came to 125 °C.
The same measure for `CCCCCCCCCCCCCCCCCCOc1cc(OCCCBr)cc(C(=O)OCc2ccccc2)c1`: 57 to 58 °C.
`N#Cc1c(Cl)cc(OCc2ccncc2)cc1OC(C(=O)O)c1ccccc1Cl` (racemic) yielded a melting point of 165 to 167 °C.
Turning to `CCc1ccc(Oc2ccc([C@@H]3CCCN4CCS(=O)(=O)N=C34)cc2)cc1`, the melting point lay in the range of 152 to 153 °C.
The same measure for `CC(=O)NC[C@H]1CN(c2ccc3c(c2)CCSc2cn[nH]c2-3)C(=O)O1`: 186 to 187 °C; for `COC(=O)c1ccc(S(=O)C(Cn2ccnc2)c2ccccc2OC)cc1` (stereo not given): 113 to 115 °C.
`N#Cc1ccc2[nH]c3c(c2c1)CC(NC(=O)OCc1ccccc1)CC3` (stereo not given): the melting point is 141 to 143 °C.
As to `CCOc1cc(OC2CCN(C)CC2)c(F)c([C@H](Nc2ccc(C(=N)N)cc2)C(=O)O)c1`, the melting point is 267 °C.
The compound `COc1ccc(N2C(=O)[C@H]([C@@H](C)O)[C@H]2S(=O)(=O)c2ccccc2)cc1` gave a melting point of 191 to 195 °C.
For `Nc1nc(-c2ccccc2)c2ncn(C3OC(CO)C(O)C3O)c2n1` (stereo not given), the melting point is 187 to 190 °C.
The same measure for `CCc1cc(Cl)c2cccc(OC)c2n1`: 80 to 81 °C; for `Cc1cc(C#N)sc1-c1ccc2c(c1)C(C)(C)C(=O)N2`: 192 to 193 °C.
The same measure for `CCOC(=O)CC(=O)C=Cc1ccc([N+](=O)[O-])cc1`: 116 °C.
In turn, `CCOC(=O)c1cc(C)n(-c2cccc(C)c2)c1-c1ccccc1` showed a melting point of 92.5 to 94 °C.
The same measure for `O=c1[nH]cc(C2CCCCC2)c2ccccc12`: 111 to 112 °C; for `COC(=O)c1nn(Cc2cccc(OC)c2)c2c1CCc1cc(OCc3cncnc3)ccc1-2`: 184 °C; for `CSC1=Nc2cccnc2Nc2cscc21`: 138 to 140 °C.
`CCN(CC)S(=O)(=O)c1cc(-n2c(=O)cc(C(F)(F)F)n(C)c2=O)c(F)cc1Cl` registered a melting point of 190 to 191 °C.
Regarding `Cn1c(=O)c(-c2ccc(Cl)cc2Cl)cc2c3cc(-c4ccn[nH]4)ccc3n(C)c21`, the melting point fell in the range of 281 to 282 °C.
Compound `CCOc1sc(C(=O)N2CCCC2)c2c1C(=O)C(=CO)C(C)(C)C2` registered a melting point of 140 to 142 °C.
The same measure for `Cc1ccc(S(=O)(=O)N2C3=NC(C)(C)N(C)C(=O)N3c3ccccc32)cc1`: 147 to 149 °C; for `CN(C)c1ccc(C(=CC(c2ccc(N(C)C)cc2)c2ccc(N(C)C)cc2)c2ccc(N(C)C)cc2)cc1`: 189 to 190 °C.
As for `NC(=O)c1cccc(NS(=O)(=O)c2ccc([N+](=O)[O-])cc2)c1`, the figure is 240 to 244 °C.
The same measure for `CC1Oc2ccc(Br)c(C=NO)c2O1` (stereo not given): 208 to 209 °C.
`OC(c1ccc(F)cc1)C1CC2CCN1CC2` (stereo not given) came in with a melting point of 69 to 70 °C.
On to `C/C=C/CNc1cccc(-c2ccnc3c(C(=O)c4cccs4)cnn23)c1`, for which the melting point was 110 to 113 °C.
The same measure for `O=C1c2ccccc2C(=O)N1CCS(=O)(=O)c1ccccc1`: 186 to 188 °C; for `COC(=O)CCCn1sc(Cl)cc1=O`: 54 to 56 °C.
As for `COc1ccccc1OCCCc1oc(N2CCOCC2)nc1-c1ccc(Cl)cc1`, the figure is 81 to 82 °C.
`CC(=C1SCCS1)c1ccc(F)cc1` registered a melting point of 27 to 31 °C.
As for `CCOC(=O)CCCOc1ccc2c(c1)C(N(CC)S(C)(=O)=O)CC(C)(C)O2` (stereo not given), the melting point was 40 to 42 °C.
The same measure for `OCCCCCCOc1ccccc1`: 69 to 74 °C.
The same measure for `COc1ccnc(CCc2nc3cc(-c4ccc5[nH]ccc5c4)cnc3[nH]2)c1`: 241 to 242 °C; for `CC1CCCN(c2cccc3c2C(=N)NC3N)C1` (stereo not given): 104 °C; for `CC1(C)N=C(S)N=C(NC(=O)c2ccccc2)N1`: 176 to 178 °C.
As for `O=C1OC(Cc2ccccc2)=NC1=Cc1cccs1`, the figure is 193 to 195 °C; as for `COC(=O)c1nc(C)c(F)c(N)c1Cl`, 113 to 114 °C.
`CCCCCCCCC(=O)Nc1cccc([N+](=O)[O-])c1` showed a melting point of 63 to 63.5 °C.
The same measure for `CCn1c(N)c(C(N)=O)c(=O)c2cnc(Nc3cccc(N4CCOCC4)c3)nc21`: 195 °C; for `CC(C)(C)C1=CC(=O)C2=C(CCCC2)C1=O`: 50 to 52 °C; for `Cc1c(Oc2ncc(C(F)(F)F)cc2Cl)nn(C(=O)NC(C)C)c1C`: 78 to 80 °C.
For the compound `CCOC(=O)c1cc(SC)c(I)cc1N`, the melting point was in the range of 59 to 60 °C.
The same measure for `CC1=C(Cc2ccc(-c3ccc(N(C)C)cc3)cc2)C(=O)c2ccccc2C1=O`: 170 to 171 °C.
The same measure for `CCCCCCCCCCCCCCCCOC[C@@H]1OCCC[C@H]1OP(=O)([O-])OCC[N+](C)(C)C` (relative stereo): 220 to 224 °C.
The same measure for `O=C1CC(c2cccc(-n3cnnc3)c2)=Nc2ccc(-c3ccccc3F)cc2N1`: 198 °C; for `CC(Oc1cccc(OCc2ccc3ccc(Br)cc3n2)c1)C(=O)O` (stereo not given): 178 °C.
The compound `Clc1nccc(N[C@H]2CC[C@@H](c3ccccc3)CC2)c1Br` displayed a melting point of 105 °C.
The compound `Cc1ccc(-c2cccc(C(=O)O)c2)cc1` showed a melting point of 182 to 187 °C.
On to `OCCCc1cccc2ccncc12`, for which the melting point was 66 to 69 °C.
As for `Cc1nc(=O)[nH]c2cc(N(C)C)ccc12`, the figure is over 300 °C; as for `CC1(C)CCC(C)(C)c2cc(-c3cc(-c4ccc(C=O)cc4)on3)ccc21`, 179 to 180 °C.
`CCCc1nn(C)c2c(=O)[nH]c(Cc3ccc(NC(C)=O)cc3)nc12` displayed a melting point of 272 to 275 °C.
As for `CC(=O)C(=[N+]=[N-])C(=O)CCCCCCCCCc1ccccc1`, the figure is 29 to 31 °C; as for `CCOCc1nc2c(N)nc3ccccc3c2n1CCOCCNS(=O)(=O)C(C)C`, 139 to 142 °C; as for `Cc1cc(C)c2cccc(C(=O)Nc3nnn[nH]3)c2n1`, 300 to 305 °C.
As for `O=c1[nH]c2cc(Cl)c(Cl)cc2[n+]([O-])c1-c1cccc(Oc2ccccc2)c1`, the figure is 258 to 260 °C; as for `CCOC(=O)C(Cc1cccc2ccccc12)C(=O)OCC`, 30 °C.
`Cc1cnc(C(=O)c2[nH]c3cc(Cl)ccc3c2CC(=O)O)c(C)c1` gave a melting point of 199 to 200 °C.
The same measure for `Cc1oc2cc(CCl)ccc2c1C`: 63 to 65 °C.
On to `Cc1nc(N2CCN(Cc3ccccc3C(F)(F)F)C2=O)sc1C(=O)NCc1ccccc1`, for which the melting point lay in the range of 138 to 140 °C.
In turn, `Cc1cccc(C)c1-n1c(C)c(C#N)c(=O)[nH]c1=O` gave a melting point of 302 to 303 °C.
`CNC(=O)c1cc(-c2ccc(OC)cc2)nn(CC(=O)Nc2ccc(SC)cc2)c1=O` had a melting point of 231 to 232 °C.
`CN1C(=O)CCC1CN1C(=O)C2(COc3cc4c(cc32)CCO4)c2ccccc21` (stereo not given) displayed a melting point of 72 to 76 °C.
Compound `O=C1C[C@@H]2[C@@H](/C=C/[C@H](O)CCc3ccccc3)[C@H](OC(=O)c3ccc(-c4ccccc4)cc3)C[C@@H]2O1` displayed a melting point of 81 to 83 °C.
For the compound `N#Cc1ccc(N2CCC(CO)CC2)cc1`, the melting point fell in the range of 148 to 150 °C.
The same measure for `CC(=O)Oc1cc(C)ccc1C1CCN(CCCCNC(=O)c2ccc(NC(=O)c3ccc(Cl)cc3)cc2)CC1`: 210 °C.
As for `CCOP(=O)(CC(Nc1cccnc1)c1cc(OC)c(O)c(OC)c1)OCC` (stereo not given), the figure is 164 to 166 °C.
The compound `CC(C)Cn1c(CNC(=O)OC(C)(C)C)c(-c2ccccc2)c2cc(OC(C)(C)C(=O)O)ccc2c1=O` displayed a melting point of 219 to 220 °C.
As for `Cc1cc(F)cc2c1CC/C2=C\C(N)=O`, the figure is 178 to 180 °C; as for `CC(=O)Nc1nc(CCc2ccc(NC(NC(=O)OC(C)(C)C)NC(=O)OC(C)(C)C)cc2)cs1`, 276 °C; as for `O=C1C(Br)CCN1c1cc(C(F)(F)F)ccn1` (stereo not given), 43 to 47 °C.
The same measure for `CCCc1nc(NCCO)nc(N2CCOCC2)n1`: 95 to 99 °C; for `Cc1ccc(Br)cc1NS(=O)(=O)c1ccccc1C(=O)O`: 274 to 276 °C; for `CC(CS(=O)(=O)c1ccccc1)C1CC=C2C3=C(CCC21C)C1(C)CCC(OC(=O)c2ccccc2)C(C)(C)C1CC3` (stereo not given): 175 to 188 °C.
On to `CCOC(=O)C(O)CSc1ccc(-c2ccccc2)cc1` (stereo not given), for which the melting point came out at 102 °C.
The compound `COC(=O)C(C)(Oc1ccc(-c2ccc(Cl)cc2)cc1)C(F)(F)F` (stereo not given) displayed a melting point of 87 to 88 °C.
In turn, `COc1ccc(NC(=O)CC23CC4CC(CC(C4)C2)C3)c(C)c1` returned a melting point of 156 to 157 °C.
In the case of `COCCOCc1c(CN(C)CC(O)c2cccc(N)c2)sc2c(=O)c(C(=O)NCc3ccc(Cl)cc3)cn(C)c12` (stereo not given), the melting point lay within 128 to 131 °C.
The same measure for `Cc1cccc(-c2ccc3c(ccn3Cc3ccc(C(C)(C)C)cc3)c2)c1`: 94 to 95 °C; for `O=C(NC(=O)c1c(Cl)cccc1Cl)Nc1ccc(C(F)(F)F)cn1`: 228 to 230 °C.
The compound `CCOC(=O)c1cn(OC)c2nc3cc(F)c(F)cc3cc2c1=O` yielded a melting point of 266 to 268 °C.
The same measure for `COc1cc(CCC2(CCc3ccc(O)c(OC)c3)CC(O)=C(Sc3cc(C)c(OCCO)cc3C(C)(C)C)C(=O)O2)ccc1O`: 76 to 82 °C.

Values taken from a melting point compilation (Tetko et al.; mined from patent text by program, amines drawn as free bases though some values may be those of a salt).
